Data published in patent US12064468B2, “Compositions and methods relating to a C-terminal peptide of troponin i with activity as a myofilament CA2+ desensitizer” (Wayne State University, priority 2019, dated 2024).
Ends that are not written are not given here.

Key:
[1] = molecular target: T1, bovine cardiac α-tropomyosin (Bos taurus, UniProt Q5KR49); assay: Competitive ELISA: peptide versus intact bovine cardiac TnI for tropomyosin binding; conditions: serial dilutions of peptide in solution
T1 construct: Purified bovine cardiac α-tropomyosin was coated on 96-well plate; from tissue; host or cells: bovine cardiac muscle (inferred from 'purified bovine cardiac')
Experimental: Competitive tropomyosin binding experiments were performed using a derivative protocol of the microtiter plate ELISA as described in B. J. Biesiadecki et al., Journal of Biomedicine and Biotechnology, (2011) 1-8. Purified bovine cardiac α-tropomyosin was coated on 96-well plate at 5 μg/mL in Buffer A at 4° C. overnight. Washed and blocked as above, bovine cardiac TnI was added, at a predetermined concentration that produces sub-maximal binding for the immobilized tropomyo sin, to serial dilutions of HcTnI-C27 or HcTnI-C27-H peptides for incubation at room temperature for 2 hours. The competition between the cardiac TnI C-terminal peptides and intact cardiac TnI for tropomyosin binding was measured via mAb 4H6 that recognizes an epitope in intact TnI but not in the C-terminal end peptide, see S. Akhter et al., FEBS Open Bio 5 (2015) 64-75, and HRP-anti-mouse IgG secondary antibody using standard ELISA procedure as described above.

mAb TnI-1 [2] = assay: Western blot with mAb TnI-1 (epitope in the C-terminal end of TnI); type: binding, mouse; conditions: after denaturing SDS-PAGE and blotting
Experimental: SDS-PAGE was performed to monitor the expression and identify the C27 peptide in intact TnI and fusion protein constructs. Briefly, 14% Laemmli SDS-PAGE with an acrylamide:bisacrylamide ratio of 29:1 was used to monitor protein expression. Protein samples were prepared by dissolving the proteins in an SDS-PAGE gel sample buffer containing 2% SDS and 3% β-mercaptoethanol. The samples were run on 0.75 mm gels at 20 mA per gel using a Bio-Rad mini-gel system. Resolved gels were stained with Coomassie Blue R-250 and de-stained using 10% acetic acid. The results were documented by imaging using a high resolution scanner.
Tris-Tricine small pore SDS-gels were utilized to […]. Briefly, 15% SDS-PAGE with acrylamide:bisacrylamide ratio of 20:1 was used to monitor the recovery of peptides. Samples were prepared as above. The gel was run using different anode and cathode buffers as described in H. Schagger et al., 166(2) (1987) 368-379; J.-P. Jin, Journal of Biological Chemistry 270(12) (1995) 6908-6916. The running conditions and documentation of results were carried out as above.
The protein bands resolved on SDS-PAGE gels were electrically transferred to nitrocellulose (NC) membranes or polyvinylidene difluoride (PVDF) membranes using a Bio-Rad semidry electrotransfer apparatus at 5 mA per cm^2. The membranes were then blocked with 1% bovine serum albumin (BSA) in Tris-buffered saline (TBS) at room temperature for 30 minutes, and incubated with mAb TnI-1 against an epitope in the C-terminal end of TnI or mAb 3C11 against the Tx3 metal affinity purification tag at 4° C. overnight. The TnI-1 mAb was raised using standard hybridoma technology in which the immunization of mouse used purified intact chicken fast TnI. […] The 3C11 mAb was generated using standard hybridoma technology in which the immunization used a Tx3 metal binding tag fusion protein. […] Washed with 0.05% Triton X-100 and 0.1% SDS in TBS, the membranes were further incubated with alkaline phosphatase-conjugated goat anti-mouse IgG secondary antibody, washed again, and developed in BCIP-NTB substrate solution. The results were documented by imaging using a high resolution scanner.

mAb TnI-1 [3] = assay: Competitive ELISA: peptide versus immobilized bovine cardiac TnI for mAb TnI-1; type: binding, mouse; conditions: physiologic solution
Experimental: To compare the folding and conformation of chemically synthesized HcTnI-C27 and HcTnI-C27-H peptides with that of the biologically synthesized counterparts, competitive ELISA affinity titrations against mAb TnI-1 were performed. 96-well microtiter plates were coated with purified bovine cardiac TnI in Buffer A and incubated at 4° C. overnight. Monoclonal antibody (mAb) TnI-1 was added, at a predetermined concentration that produces sub-maximal binding for the immobilized bovine cardiac TnI, to serial dilutions of biologically or chemically synthesized HcTnI-C27 and HcTnI-C27-H peptides. The effects of the peptides on competing with intact cardiac TnI for mAb TnI-1 were measured via HRP-anti-mouse IgG secondary antibody using standard ELISA procedure as described above.

[4] = tested on: skinned mouse EDL muscle fibers; assay: Force-pCa contractility of skinned mouse EDL muscle fibers; type: biochemical; conditions: 20 μM peptide, sarcomere length 2.7 μm
Description: Extensor digitorum longus (EDL) muscles were obtained from adult C57B/L6 mice immediately after euthanasia to prepare chemically permeabilized muscle preparations as described in J. Ochala et al., The FASEB Journal 25(6) (2011) 1903-1913; and S. M. Roche et al., Journal of Visualized Experiments 100 (2015). Briefly, whole EDL muscles were excised from mice and longitudinally dissected along fibers in a calcium free relaxing buffer. The muscle strips dissected were washed with the relaxing buffer and stored in a 35 mm dish at −20° C. in 50% glycerol relaxing-skinning solution to remove cellular membranes and the endogenous calcium handling system for use in the measurements of calcium sensitivity and force-pCa relationship.
For contractility studies, the storage dish was placed on a thermal-controlled metal stage at 0° C. under a dissection scope. Cryosectioned cardiac muscle strips selected with cardiomyocytes clearly organized along the long axis and EDL muscle fibers were mounted between two aluminum T-clips and transferred to an 8-chamber thermo-controlled stage (802D, Aurora Scientific) on an inverted microscope in relaxation buffer at 6-8° C. Seen through a 20× lens, the muscle preparation was connected to a force transducer (403A, Aurora Scientific) and a length controller (322-C, Aurora Scientific). The buffer was then switched to a skinning solution (relaxation buffer containing 1% Triton X-100) for 20 min to further permeabilize the muscle strips. After a wash with relaxation buffer, the permeabilized muscle strip was placed in pCa 9.0 buffer made by mixing the relaxing buffer (pCa 10.0) with an activation buffer (BES 40 mM, EGTA 10 mM, MgCl2 6.64 mM, ATP 6.23 mM, DTT, 1 mM, CaCl2 10 mM, creatine phosphate 33 mM, creatine kinase 200 U/mL, K-propionate 2.09 mM, pH 7.0, plus protease inhibitor cocktail, pCa 4.0) and the sarcomere length was measured through a digital camera attached to the microscope and adjusted to resting sarcomere length of 2.7 μm for EDL muscle fibers or 2.0 μm and 2.3 μm for cardiac muscle fibers. […]

[5] = tested on: skinned mouse ventricular papillary muscle; assay: Force-pCa contractility of skinned mouse ventricular papillary muscle; type: biochemical; conditions: 20 μM peptide
Experimental: (§1) Permeabilized rat and mouse left ventricular papillary muscle preparations were prepared using a skinned cryosection method. Papillary muscles were dissected with a portion of ventricular free wall in one end and valve tendon in the other end. The isolated papillary muscle was pinned down on a cork at the two ends using 30 gauge needles. A small drop of optimal cutting temperature (O.C.T.) compound was used to fill the space between the muscle tissue and the surface of the cork before flash freezing by quickly submerging in liquid nitrogen. The frozen papillary muscle was sectioned longitudinally at a thickness of 35 μm using a cryostat and collected on a glass slide. Four stacked razor blades were used to cut the muscle sections longitudinally into 140-150 μm wide strips. The muscle strips were washed in a relaxing buffer (BES 40 mM, EGTA 10 mM, MgCl2 6.86 mM, ATP 5.96 mM, DTT 1 mM, creatine phosphate 33 mM, creatine kinase 200 U/mL, K-propionate 3.28 mM, pH 7.0, plus protease inhibitor cocktail) and then gently transferred into myofibril relaxation buffer containing 50% glycerol in a 35 mm culture dish and stored at −20° C. for later use in force-pCa studies.
For contractility studies, the storage dish was placed on a thermal-controlled metal stage at 0° C. under a dissection scope. […] After a wash with relaxation buffer, the permeabilized muscle strip was placed in pCa 9.0 buffer made by mixing the relaxing buffer (pCa 10.0) with an activation buffer (BES 40 mM, EGTA 10 mM, MgCl2 6.64 mM, ATP 6.23 mM, DTT, 1 mM, CaCl2 10 mM, creatine phosphate 33 mM, creatine kinase 200 U/mL, K-propionate 2.09 mM, pH 7.0, plus protease inhibitor cocktail, pCa 4.0) and the sarcomere length was measured through a digital camera attached to the microscope and adjusted to resting sarcomere length of 2.7 μm for EDL muscle fibers or 2.0 μm and 2.3 μm for cardiac muscle fibers. […]

[6] = tested on: skinned rat ventricular papillary muscle; assay: Force-pCa contractility of skinned rat ventricular papillary muscle sections; type: biochemical; conditions: 20 μM peptide
Experimental: as §1
For contractility studies, the storage dish was placed on a thermal-controlled metal stage at 0° C. under a dissection scope. Cryosectioned cardiac muscle strips selected with cardiomyocytes clearly organized along the long axis and EDL muscle fibers were mounted between two aluminum T-clips and transferred to an 8-chamber thermo-controlled stage (802D, Aurora Scientific) on an inverted microscope in relaxation buffer at 6-8° C. Seen through a 20× lens, the muscle preparation was connected to a force transducer (403A, Aurora Scientific) and a length controller (322-C, Aurora Scientific). The buffer was then switched to a skinning solution (relaxation buffer containing 1% Triton X-100) for 20 min to further permeabilize the muscle strips. After a wash with relaxation buffer, the permeabilized muscle strip was placed in pCa 9.0 buffer made by mixing the relaxing buffer (pCa 10.0) with an activation buffer (BES 40 mM, EGTA 10 mM, MgCl2 6.64 mM, ATP 6.23 mM, DTT, 1 mM, CaCl2 10 mM, creatine phosphate 33 mM, creatine kinase 200 U/mL, K-propionate 2.09 mM, pH 7.0, plus protease inhibitor cocktail, pCa 4.0) and the sarcomere length was measured through a digital camera attached to the microscope and adjusted to resting sarcomere length of 2.7 μm for EDL muscle fibers or 2.0 μm and 2.3 μm for cardiac muscle fibers. Calcium activated force was examined at pCa 6.5, 6.3, 6.0, 5.8, 5.5, 5.0, and 4.5 at 15° C. using calcium-EGTA buffer sets made using a formula described in S. M. Roche et al., Journal of Visualized Experiments 100 (2015). HcTnI-C27 peptide was then added at 20 μM and the force-pCa measurements were repeated. The force-pCa curves were plotted and fitted using Hill exponential equation for data analysis, see S. M. Roche et al., Journal of Visualized Experiments 100 (2015).

mAb TnI-1 [7] = assay: ELISA titration of mAb TnI-1 against coated fusion proteins / cardiac TnI, non-denaturing; type: binding, mouse; conditions: non-denaturing conditions, protein coated on microtiter plate
Experimental: The ELISA procedure used in the present study for epitope structure and protein binding studies was performed as described in B. J. Biesiadecki et al., Journal of Biomedicine and Biotechnology, (2011) 1-8. Briefly, 96-well microtiter plates were coated with SUMO-HcTnI-C27 fusion protein, SUMO-HcTnI-C27-H fusion protein, purified bovine cardiac TnI, or R192H mutant mouse cardiac TnI (2 μg/mL in Buffer A containing 0.1 M KC1, 3 mM MgCl2, 10 mM PIPES, pH 7.0, 100 microliters/well) at 4° C. overnight. The plates were washed with Buffer T (0.05% Tween-20 in Buffer A) for 10 minutes and tapped dry. The wells were blocked using Buffer B (1% BSA in Buffer T) at room temperature for one hour. After washing again with Buffer T, serial dilutions of primary mAb against the coated protein were added in triplicates in Buffer D (dilution buffer, 0.1% BSA in Buffer T) and the plate was incubated at room temperature for two hours. After Buffer T washes, horseradish peroxidase (HRP)-conjugated anti-mouse immunoglobulin secondary antibody was added to incubate at room temperature for one hour. After final washes, H2O2-2,2′-azinobis-(3-ethylbenzthiazolinesulfonic acid) substrate solution was added for colorimetric development at room temperature and the plate was read using an automated microplate reader at 420 nm at 5 minute intervals for 30 minutes.
The ELISA experiments were done in triplicate wells. […]

[8] = sarcomere lengths 2.0 μm and 2.3 μm

| Substance | competition with intact bovine cardiac TnI for binding to immobilized tropomyosin [1] | reactivity to mAb TnI-1 in Western blot (mAb TnI-1 [2]) | competition with intact cardiac TnI for binding of mAb TnI-1, synthetic versus biologically made peptide (mAb TnI-1 [3]) | cooperativity (n) of force-pCa curve [4] | maximum force production [4] | myofilament Ca2+ sensitivity [4] | cooperativity ([5]; sarcomere length 2.0 μm, activated state) | Ca2+ sensitivity (force-pCa curves) [5, 8] | maximum force production [5, 8] | pCa50 and cooperativity ([6]; sarcomere length 2.0 μm) | Ca2+-sensitization effect of increasing sarcomere length ([6]; sarcomere length 2.0 μm to 2.3 μm) | cooperativity ([6]; sarcomere length 2.3 μm) | pCa50 ([6]; sarcomere length 2.3 μm) | maximum force production [6, 8] | binding of mAb TnI-1 in ELISA titration (mAb TnI-1 [7]) |
| --- | --- | --- | --- | --- | --- | --- | --- | --- | --- | --- | --- | --- | --- | --- | --- |
| ENREVGDWHKNIDALSGMEGRKKKFES (C-terminal portion of human cardiac troponin I with H substitution for R at position 9) [HcTnI-C27-H, R192H mutant of the C-terminal 27 amino acid peptide of human cardiac TnI, reference compound] | diminished | remains non-reactive to mAb TnI-1 | drastically lost the binding affinity for mAb TnI-1 | – | – | – | – | – | – | – | – | – | – | – | – |
| ENREVGDWRKNIDALSGMEGRKKKFES (C-terminal portion of human cardiac troponin I) [HcTnI-C27, the C-terminal 27 amino acid peptide of human cardiac TnI] | dose-dependent competition | remains reactive to mAb TnI-1 | nearly identical effectiveness | significantly decreased cooperativity | not affected | myofilament Ca^2+-desensitization effect predominantly in the activated state | significantly lowered cooperativity | right-shifts of the force-pCa curves | not significantly affected | small effect on lowering pCa50 and cooperativity | diminished the Ca^2+-sensitization effect of increasing sarcomere length from 2.0 μm to 2.3 μm | trend of decreasing cooperativity | statistically significant right-shift of pCa50 | not affected | – |
| Tx3-SUMO-HcTnI-C27-H: HcTnI-C27-H (R192H mutant) expressed as Tx3-SUMO fusion protein (ENREVGDWHKNIDALSGMEGRKKKFES; also: expressed as Tx3-SUMO fusion protein) [reference compound] | – | lost binding to mAb TnI-1 | – | – | – | – | – | – | – | – | – | – | – | – | clearly detectable but significantly decreased binding to mAb TnI-1 |
| Tx3-SUMO-HcTnI-C27: HcTnI-C27 expressed as fusion protein with Tx3 metal-binding tag and SUMO substrate domain (ENREVGDWRKNIDALSGMEGRKKKFES; also: expressed as Tx3-SUMO fusion protein) | – | reactive to mAbTnI-1 | – | – | – | – | – | – | – | – | – | – | – | – | saturable binding of mAb TnI-1 |
